Laboratory results reported in PMC5532363, “Synergistic blending of high-valued heterocycles inhibits growth of Plasmodium falciparum in culture and P. berghei infection in mouse model” (Scientific Reports, 2017).
Read-outs that look alike come from different tables or passages of the source. One block for each molecule: values may come before it.

Columns and labels:
[1] = MTT cytotoxicity assay in U937 cells; assay type: cell-based; conditions: human; for selectivity ratio at 24 h: U937 cells (CC50) versus 3D7 parasites (IC50), CC50 U937 / IC50 3D7, SI > 2 = low cytotoxicity, read-out: selectivity index (SI); for CC50 at 24 h: U937 cells, MTT
Experimental: As a final step in the investigational pipeline, we determined the cytotoxic effect of the four active analogues (6a, 6h, 6m and 6u) in U937 cell lines by measuring 50% cytotoxic concentrations (CC50) and calculating selectivity indices (SIs) as a measure of toxicity in human cells.
Cytotoxicity of the 4 select Pht compounds on human cells was evaluated by assessing cell viability of the U937, a human acute monocyte leukemia cell lines by use of the MTT assay. U937 was acquired from American Type Culture Collection (ATCC, Rockville, MD) and maintained in RPMI 1640 medium supplemented with 10% fetal bovine serum, and Penicillin-streptomycin (1% v/v) (Gibco, UK) at 37 °C. Robust U937 cells at a concentration of 80,000 cells/ml were plated into 96-well plates and incubated for 24 hours. Six concentrations of the Pht compounds were added in a two-fold dilution from starting concentration of 50 to 1.56 µM in triplicate and incubated with the cells for 24 hours. This was followed by addition of 10 µL MTT solution (5 mg/mL) into each well, incubated for 4 hour at 37 °C followed by addition of 50 µL DMSO to dissolve the formazan precipitate according to manufacturer’s protocol. Aliquots were drawn from each well and color intensity was measured spectrophotometrically in an ELISA plate reader (Biotek, ELx800) at 540 nm. The cell viability ratio was calculated by the following formula: % cytotoxicity = [Mean OD of test cells] − [Mean OD of control cells]/[Mean OD of control cells] × 100. Viability counts were then plotted against corresponding drug concentrations to yield cytotoxicity (CC50) through non-linear regression (sigmoid dose-response/variable slope equation). Drug CC50 values were then used to define selectivity indices, which is a measure of drug safety in human relative to parasitic cells and was calculated as the ratio of the CC50 value determined on the U937 cells (cytotoxicity) and the IC50 value determined on parasite growth inhibition 3D7 (anti-plasmodial activity). In this study, we set SI > 2 as cut-off as an indicative of low drug cytotoxicity.

CQ resistant PfW2 strain = assay: SYBR Green I growth inhibition assay, P. falciparum W2 culture; assay type: cell-based; conditions: Plasmodium falciparum
Description: (§1) Antimalarial activity of all the listed Pht analogues was initially assessed on asynchronous cultures of P. falciparum 3D7 (Pf3D7) clone using the SYBR Green assay. […] The mean IC50 values are based on three separate experiments (Table 1).
The laboratory-adapted P. falciparum strains 3D7 (Africa; CQ sensitive) and W2 (Africa; CQ resistant), were acquired from Malaria Research and Reference Reagent Resource Center (MR4) (Manassas, VA, USA) and maintained with type O +ve erythrocytes suspended in continuous complete culture medium as described. Complete culture media consisted of 10.43 g/litre of RPMI 1640-HEPES supplemented with 10% (vol/vol) human AB serum, 92.6 mg/litre L-glutamine, 50 mg/liter hypoxanthine, 2 g/litre sodium bicarbonate (Sigma-Aldrich, St. Louis, MO). Incubation of cultures was at 37 °C and maintained in a low oxygen atmosphere (5% O2, 5% CO2, 90% N). The levels of parasitemia in the cultures were maintained at between 2 and 10%, with 5% hematocrit. Media was changed after every 24 hours and parasitemia monitored every 48 hours. Synchronous cultures were prepared by sorbitol lysis. Stock solutions of the Pht, Pht analogues, and DHA were prepared in absolute dimethyl sulfoxide (DMSO) while CQ was prepared in distilled water. The prepared drug stock solutions were used immediately or stored at −80 °C for not longer than one month before use. Stock solutions were further diluted in serum free RPMI 1640 media (stock solution solvent final conc. 0.05%) before performing a 2-fold serial dilution to achieve dose ranges of 0.2 µM to 100 µM (Pht and derivatives), 7.8 to 2,000 nM (CQ) and 0.17 to 87.5 nM (DHA). 25 μL of the drug diluents were aliquoted into 96 well plates and used immediately. Alternatively, the stock solutions were diluted in distilled water, 2-fold serial dilution performed on a 96 well plate and allowed to air dry in a laminar flow hood after which dried plates were stored at 4 °C until use. SYBR Green I assay technique with additional modification was used for drug susceptibility testing of the parasites. Parasite cultures of >1% parasitemia were diluted to 1% parasitemia and 2% hematocrit and 200 μL were transferred onto drug pre-dosed plates and incubated at 37 °C for 90 hours, [40]. […] Relative fluorescence units (RFU) were read using the Perkin Elmer Wallac 1420 fluorescence plate reader, with excitation and emission wavelengths of 485 nm and 535 nm respectively. The readouts values were aligned with corresponding drug doses and analysis performed by Graph-pad Prism software. The drug concentrations (x value) were transformed using X = Log[X] and plotted against the counts (y values) and the data analysed by non-linear regression (sigmoid dose-response/variable slope equation) to yield the IC50.

[2] = system: synchronized Pf3D7 strain cultures (rings, trophozoites); assay: Stage-specificity and parasitemia titres on synchronized Pf3D7 cultures (Giemsa smears); assay type: cell-based, Plasmodium falciparum; conditions: for effect on ring stage parasitemia: 6 hours post exposure of ring stages; for effect on ring stage parasitemia / effect on mature blood stage parasite titres (parasitemia): Fig. 5; for effect on mature blood stage parasite titres (parasitemia): 16 hours after incubation with trophozoite stage; for effect on progression from trophozoites to schizonts / schizont morphology: concentration = individual IC50, up to 16 hours exposure; for effect on ring-stage growth and morphology: newly synchronized rings, concentration = individual IC50, monitored at 6 and 12 hours
Experimental: Next, we sought to determine stage-specificity of the antiplasmodial activity of the four active analogues (6a, 6h, 6m and 6u) on synchronized Pf3D7 strain cultures at 2% hematocrit and 1% parasitemia, with concentrations corresponding to individual drug IC50. To determine the effect of the compounds on both early and late ring stage parasites, the treatment was conducted on newly synchronized rings for 12 hours, and drug effect on parasite growth and morphology was monitored at 6 and 12 hours after exposure. Similarly, early trophozoites were exposed to each compound and incubated for 16 hours, and monitored at 6 and 16 hours post-exposure. The effect of the compounds on parasite morphology and development was compared in exposed and unexposed drug wells (Figs 3 and 4).
Figure 5 Effect of Pht analogues on parasite growth titres (Note: Graphical description of the inhibitory effect of select analogues on parasite growth titres 6 hours after incubation with ring-stages and 16 hours after drug incubation with trophozoite stage. Parasitemia percentage was derived by counting the number of infected erythrocytes from a total of 2,000 erythrocytes on Giemsa stained thin smears from each experiment. Bar diagrams represent the average of three different experiments).

[3] = system: P. falciparum 3D7 (Pf3D7), CQ sensitive; assay: SYBR Green I growth inhibition assay, asynchronous P. falciparum 3D7 culture; assay type: cell-based, Plasmodium falciparum; conditions: SYBR Green, mean of three experiments, NDR / No IC50 = no dose response
Description: as §1
The laboratory-adapted P. falciparum strains 3D7 (Africa; CQ sensitive) and W2 (Africa; CQ resistant), were acquired from Malaria Research and Reference Reagent Resource Center (MR4) (Manassas, VA, USA) and maintained with type O +ve erythrocytes suspended in continuous complete culture medium as described. Complete culture media consisted of 10.43 g/litre of RPMI 1640-HEPES supplemented with 10% (vol/vol) human AB serum, 92.6 mg/litre L-glutamine, 50 mg/liter hypoxanthine, 2 g/litre sodium bicarbonate (Sigma-Aldrich, St. Louis, MO). Incubation of cultures was at 37 °C and maintained in a low oxygen atmosphere (5% O2, 5% CO2, 90% N). The levels of parasitemia in the cultures were maintained at between 2 and 10%, with 5% hematocrit. Media was changed after every 24 hours and parasitemia monitored every 48 hours. Synchronous cultures were prepared by sorbitol lysis. Stock solutions of the Pht, Pht analogues, and DHA were prepared in absolute dimethyl sulfoxide (DMSO) while CQ was prepared in distilled water. The prepared drug stock solutions were used immediately or stored at −80 °C for not longer than one month before use. Stock solutions were further diluted in serum free RPMI 1640 media (stock solution solvent final conc. 0.05%) before performing a 2-fold serial dilution to achieve dose ranges of 0.2 µM to 100 µM (Pht and derivatives), 7.8 to 2,000 nM (CQ) and 0.17 to 87.5 nM (DHA). 25 μL of the drug diluents were aliquoted into 96 well plates and used immediately. Alternatively, the stock solutions were diluted in distilled water, 2-fold serial dilution performed on a 96 well plate and allowed to air dry in a laminar flow hood after which dried plates were stored at 4 °C until use. SYBR Green I assay technique with additional modification was used for drug susceptibility testing of the parasites. Parasite cultures of >1% parasitemia were diluted to 1% parasitemia and 2% hematocrit and 200 μL were transferred onto drug pre-dosed plates and incubated at 37 °C for 90 hours, [40]. Drug exposure was terminated by freezing the drug plates at −80 °C for 24 hours after which lysis buffer containing (per liter) 100 mM Tris-HCl, 10 mM EDTA, 0.016% Saponin, 1.6% triton X-100 and 20X SYBR Green I dye was added and the sample incubated for 2 hours in the dark. Relative fluorescence units (RFU) were read using the Perkin Elmer Wallac 1420 fluorescence plate reader, with excitation and emission wavelengths of 485 nm and 535 nm respectively. The readouts values were aligned with corresponding drug doses and analysis performed by Graph-pad Prism software. The drug concentrations (x value) were transformed using X = Log[X] and plotted against the counts (y values) and the data analysed by non-linear regression (sigmoid dose-response/variable slope equation) to yield the IC50.

P. falciparum 3D7 = assay: Fixed-ratio isobologram drug interaction assay with CQ/DHA, 3D7; assay type: cell-based, Plasmodium falciparum; conditions: Pf3D7
Experimental: (§2) A modified fixed-ratio isobologram method was used to assess interaction between CQ/DHA and Pht analogues. Briefly, a total of 5 solutions containing fixed-ratio mixtures of Pht derivatives with either CQ or DHA were prepared in the following ratios: 1:1, 2:1, 3:2, 2:3, and 1:4. The starting concentrations for ten 2 fold-serial dilutions across the microtiter plate were assigned so that the IC50 of each drug would be in the 5th serial dilution of the plate. Each drug was tested alone and at fixed ratios of its IC50. The assessment of drug interaction was based on the calculation of the fractional inhibitory concentration (FIC) of two drugs in the […]. FIC was calculated for each association by dividing the IC50 of the drug in the combination by the IC50 of the drug alone.

P. falciparum W2 = assay: Fixed-ratio isobologram drug interaction assay with CQ/DHA, W2; assay type: cell-based, Plasmodium falciparum; conditions: PfW2
Experimental: as §2

[4] = Plasmodium falciparum, 3D7, Pf3D7, asynchronous culture, read-out: IC50 (SE) µg/mL

- IC50 ([3]; Pf3D7, asynchronous culture, read-out: IC50 (SE) µM): 3.5 µM
- IC50 ([3]; Plasmodium falciparum, 3D7, Pf3D7, asynchronous culture, read-out: IC50 (SE) µM): < 5.14 µM
- IC50 [3, 4]: 1.8 µg/mL
Structure (SMILES): CC(C)[C@H](c1nc2ccccc2n1Cc1cn(-c2ccc(F)cc2)nn1)N1C(=O)c2ccccc2C1=O [Compound 6m]
- selectivity ratio at 24 h [1]: 1.11 ± 1.5
- CC50 at 24 h [1]: 780 ± 320 nM
- IC50 (CQ resistant PfW2 strain): 3800 nM
- effect on ring stage parasitemia [2]: did not affect parasite growth
- effect on mature blood stage parasite titres (parasitemia) [2]: reduction in parasitemia
- effect on trophozoites ([2]; early trophozoites, concentration = individual IC50, 6 hours after exposure): trophozoite growth did not appear to be affected
- effect on progression from trophozoites to schizonts / schizont morphology ([2]; early trophozoites): schizonts appeared less granular and lacked distinguishable merozoites
- effect on ring-stage growth and morphology [2]: did not arrest ring-stage maturation

- IC50 [3, 4]: 0.7 µg/mL
Structure (SMILES): CC(C)C[C@H](c1nc2ccccc2n1Cc1cn(-c2ccccc2)nn1)N1C(=O)c2ccccc2C1=O [Compound 6a]
- selectivity ratio at 24 h [1]: 1.01 ± 1.5
- CC50 at 24 h [1]: 910 ± 320 nM
- IC50 (CQ resistant PfW2 strain): 700 nM
- interaction when combined with CQ and DHA (P. falciparum 3D7): synergistic activity
- effect on ring stage parasitemia [2]: reduction in ring stage parasitemia
- effect on mature blood stage parasite titres (parasitemia) [2]: negligible
- effect on progression from trophozoites to schizonts / schizont morphology ([2]; early trophozoites): did not interfere with development of parasite progression from trophozoites to schizonts
- effect on ring-stage growth and morphology [2]: active against ring-stage forms
- interaction when combined with CQ and DHA (P. falciparum W2): synergistic activity
